Data reported in US20100249123A1, “NOVEL BENZAMIDE DERIVATIVES AS MODULATORS OF THE FOLLICLE STIMULATING HORMONE” (ADDEX PHARMA SA, priority 2007, published 2010).

Molecular target: T1, rat follicle stimulating hormone receptor (rFSHR) (Rattus norvegicus, UniProt P20395)
T1 construct: expressed in transfected cells
T1 sequence (P20395 18-692): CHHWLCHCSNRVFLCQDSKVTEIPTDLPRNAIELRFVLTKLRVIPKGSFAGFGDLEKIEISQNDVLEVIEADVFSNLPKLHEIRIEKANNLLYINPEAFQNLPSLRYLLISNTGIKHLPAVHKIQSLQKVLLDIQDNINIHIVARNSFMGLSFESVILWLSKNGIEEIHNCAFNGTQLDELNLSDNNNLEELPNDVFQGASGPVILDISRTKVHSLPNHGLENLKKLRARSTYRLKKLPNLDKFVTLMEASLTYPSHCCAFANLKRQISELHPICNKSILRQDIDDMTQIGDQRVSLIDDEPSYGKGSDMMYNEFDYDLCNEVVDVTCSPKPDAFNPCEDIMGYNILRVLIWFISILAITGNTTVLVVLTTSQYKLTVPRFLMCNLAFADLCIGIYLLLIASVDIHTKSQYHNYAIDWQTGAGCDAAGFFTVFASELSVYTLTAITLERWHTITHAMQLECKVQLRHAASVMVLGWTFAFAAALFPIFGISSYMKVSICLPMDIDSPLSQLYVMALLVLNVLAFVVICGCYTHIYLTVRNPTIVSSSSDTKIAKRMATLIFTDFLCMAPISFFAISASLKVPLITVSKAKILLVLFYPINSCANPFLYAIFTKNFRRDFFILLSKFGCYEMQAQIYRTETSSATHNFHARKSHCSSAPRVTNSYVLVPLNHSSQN
Test: Intracellular cAMP measurement (HTRF) assay, antagonism of EC70 of hFSH
Format: cell-based
Conditions: HEK293 cells expressing rFSHR, 1 ng/ml hFSH (EC70), read-out: Class (IC50 to antagonise an EC70 of FSH receptors agonist such as hFSH)
From the text: Intracellular cAMP Measurement Assay
The Intracellular cAMP measurement assay is a functional cell-based assay used to study GPCR function. This method relies on a Time-Resolved Fluorescence (HTRF) assay to measure the cAMP accumulation upon receptor-mediated Gs protein activation in cells expressing recombinant GPCR or in cells from native tissues. In brief, this method is a competitive immunoassay between native cAMP produced by cells and the cAMP labeled with a fluorescent tag. The endogenously produced cAMP competes with exogenous added d2-labelled cAMP for the cAMP binding site on a Eu3+ cryptate labelled anti-cAMP antibody. The d2-labelled cAMP and the Eu^3+ labelled antibody produces a basal fluroresence via HTRF and therefore an intracellular increase in unlabelled cAMP is detected as decrease in this signal. cAMP is one of the most important intracellular mediators. Its concentration in cells can be increased upon binding of many hormones to their receptors. The most studied pathway consists in the release of α-subunit GTP-binding proteins following ligand-receptor interaction, which in turn activates or inhibits the ATP/cAMP conversion function of adenylate cyclase enzyme. cAMP is then involved in many complex regulatory processes such as protein kinase activation or ion channel gating. This method is widely used to study receptor activation of G protein in cells over-expressing GPCRs or in native cells, including FSH receptors expressing cells (Gabriel et al., Assay Drug Dev. Technol., 1, 291-303, 2003).
Transfection and cell culture: The cDNA encoding the rat follicle stimulating hormone receptor (rFSHR), (accession number NM_199237, NCBI Nucleotide database browser) was subcloned into an expression vector containing also the hygromycin resistance gene. Transfection of this vector into HEK293 cells with PolyFect reagent (Qiagen) according to supplier's protocol, and hygromycin treatment allowed selection of antibiotic resistant cells which had integrated stably one or more copies of the plasmid. Positive cellular clones expressing rFSHR were identified in a functional assay measuring cAMP production in cells following stimulation by addition of purified human follicle stimulating hormone (hFSH).
HTRF cAMP assay: On the day of the experiment, cells were detached from the Petri dish and distributed in a low volume, black-walled 384-well plate at a density of 5,000 cells/well in an assay buffer containing 1 mM IBMX to prevent cAMP degradation by cytoplasmic phosphodiesterases. The determination of the cAMP accumulation was performed using an HTRF assay (Trinquet et al., Anal. Biochem., 358, 126-135, 2006). Briefly, cells were incubated for 3 min in the presence of increasing concentrations of negative allosteric modulators (from 1 nM to 60 μM) and then 30 min in the presence of 1 ng/ml of hFSH, an agonist of rat FSH receptor, that has been determined in previous experiments to correspond to the EC70, a concentration that gives 70% of the maximal response of the agonist, and is in accordance with published data (Fox et al., Mol. Endocrin., 15, 378-389, 2001). […] Cells were then lysed by adding the HTRF assay components, the europium cryptate-labeled anti-cAMP antibody, and the XL665-labeled cAMP analog, previously diluted in a HEPES buffer (50 mM, pH 7.0) containing 0.8 M potassium fluoride, 0.2% (w/v) BSA, and 1% (v/v) Triton X-100, a percentage of detergent that ensure complete cell lysis. Assay was then incubated for 1 hr at room temperature, and HTRF signal was measured after excitation at 337 nm, and dual emission at 620 and 665 nm, using a RubyStar fluorimeter (BMG Labtechnologies). Moreover, the fluorescence ratio of an appropriate range of known concentrations of cAMP standards was also included on each assay plate to produce a standard cAMP curve. […]

Compound	IC50 [nM]
1H-Pyrrolo[2,3-b]pyridine-5-carboxylic acid {2-[4-(3,4-dimethoxy-benzoylamino)-phenyl]-2-methyl-propyl}-amide [Example 201]	150 to 400
COc1ccc(C(=O)Nc2ccc(C(C)(C)CNC(=O)c3ccccn3)cc2)cc1OC [Example 74]	150 to 400
COc1ccc(C(=O)Nc2ccc(C(C)(C)C#N)c(C(F)(F)F)c2)cc1OC [Example 99, N-[4-(Cyano-dimethyl-methyl)-3-trifluoromethyl-phenyl]-3,4-dimethoxy-benzamide]	150 to 400
COc1ccc(C(=O)Nc2ccc(C(C)(C)CNC(=O)c3c[nH]c4ccccc34)cc2)cc1OC [Example 101, 1H-Indole-3-carboxylic acid{2-[4-(3,4-dimethoxy-benzoylamino)-phenyl]-2-methyl-propyl}-amide]	150 to 400
COc1ccc(C(=O)Nc2cccc(C3(CNC(=O)c4nn(C)c5ccccc45)CCCC3)c2)cc1OC [Example 102, 1-Methyl-1H-indazole-3-carboxylic acid{1-[3-(3,4-dimethoxy-benzoylamino)-phenyl]-cyclopentylmethyl}-amide]	≥ 1000
COc1ccc(C(=O)Nc2ccc(C(C)(C)CNC(=O)c3cn(C(C)=O)c4ccccc34)cc2)cc1OC [Example 104, 1-Acetyl-1H-indole-3-carboxylic acid{2-[4-(3,4-dimethoxy-benzoylamino)-phenyl]-2-methyl-propyl}-amide]	400 to 1000
COc1ccc(C(=O)Nc2ccc(C(C)(C)CNC(=O)c3nn(C)c4ccccc34)c(C)c2)cc1OC [Example 110, 1-Methyl-1H-indazole-3-carboxylic acid{2-[4-(3,4-dimethoxy-benzoylamino)-2-methyl-phenyl]-2-methyl-propyl}-amide]	150 to 400
COc1ccc(C(=O)Nc2cc(Cl)c(C(C)(C)C#N)c(Cl)c2)cc1OC [Example 120, N-[3,5-Dichloro-4-(cyano-dimethyl-methyl)-phenyl]-3,4-dimethoxy-benzamide]	150 to 400
COc1ccc(C(=O)Nc2ccc(C(C)(C)CNC(=O)c3nn(C)c4ccccc34)c(Cl)c2)cc1OC [Example 121, 1-Methyl-1H-indazole-3-carboxylic acid{2-[2-chloro-4-(3,4-dimethoxy-benzoylamino)-phenyl]-2-methyl-propyl}-amide]	150 to 400
COc1ccc(C(=O)Nc2ccc(C(C)(C)CNC(=O)c3cc(C)[nH]n3)cc2)cc1OC [Example 127]	400 to 1000
COc1ccc(C(=O)Nc2ccc(C(C)(C)C#N)c(-c3cccnc3)c2)cc1OC [Example 132, N-[4-(Cyano-dimethyl-methyl)-3-pyridin-3-yl-phenyl]-3,4-dimethoxy-benzamide]	150 to 400
CCc1cc(NC(=O)c2ccc(OC)c(OC)c2)ccc1C(C)(C)C#N [Example 133, N-[4-(Cyano-dimethyl-methyl)-3-ethyl-phenyl]-3,4-dimethoxy-benzamide]	< 150
COCCn1cc(C(=O)NCC(C)(C)c2ccc(NC(=O)c3ccc(OC)c(OC)c3)cc2)c2cc(F)ccc21 [Example 191, 5-Fluoro-1-(2-methoxy-ethyl)-1H-indole-3-carboxylic acid {2-[4-(3,4-dimethoxy-benzoylamino)-phenyl]-2-methyl-propyl}-amide]	150 to 400
CCc1cc(NC(=O)c2ccc(OC)c(OC)c2)ccc1C(C)(C)CNC(=O)c1cnc2[nH]cnc2c1 [Example 198, 3H-Imidazo[4,5-b]pyridine-6-carboxylic acid {2-[4-(3,4-dimethoxy-benzoylamino)-2-ethyl-phenyl]-2-methyl-propyl}-amide]	< 150

The remaining lines, values ahead:

IC50 [nM]	Compound
150 to 400	COc1ccc(C(=O)Nc2ccc(C(C)(C)CNC(=O)c3ccco3)cc2)cc1OC [Example 32]
< 150	COc1ccc(C(=O)Nc2ccc(C(C)(C)CNC(=O)c3cnn4ccccc34)cc2)cc1OC [Example 41]
150 to 400	COc1ccc(C(=O)Nc2ccc(C(C)(C)C#N)c(C)c2)cc1OC [Example 95, N-[4-(Cyano-dimethyl-methyl)-3-methyl-phenyl]-3,4-dimethoxy-benzamide]
150 to 400	COc1ccc(C(=O)Nc2ccc(C(C)(C)CNC(=O)c3n[nH]c4ccccc34)c(C)c2)cc1OC [Example 109, 1H-Indazole-3-carboxylic acid{2-[4-(3,4-dimethoxy-benzoylamino)-2-methyl-phenyl]-2-methyl-propyl}-amide]
150 to 400	COc1ccc(C(=O)Nc2ccc(C(C)(C)CNC(=O)c3n[nH]c4ccccc34)c(Cl)c2)cc1OC [Example 113, 1H-Indazole-3-carboxylic acid{2-[2-chloro-4-(3,4-dimethoxy-benzoylamino)-phenyl]-2-methyl-propyl}-amide]
≥ 1000	COc1ccc(C(=O)Nc2ccc(Cl)c(C(C)(C)C#N)c2)cc1OC [Example 125, N-[4-Chloro-3-(cyano-dimethyl-methyl)-phenyl]-3,4-dimethoxy-benzamide]
150 to 400	COc1ccc(C(=O)Nc2ccc(C(C)(C)CNC(=O)c3ccc4[nH]ccc4c3)cc2)cc1OC [Example 142]
≥ 1000	COc1ccc(C(=O)Nc2ccc(C(C)(C)C#N)c(-c3ccccn3)c2)cc1OC [Example 183, N-[4-(Cyano-dimethyl-methyl)-3-pyridin-2-yl-phenyl]-3,4-dimethoxy-benzamide]
400 to 1000	COc1ccc(C(=O)Nc2ccc(C(C)(C)CNC(=O)c3cnc4ncccn34)cc2)cc1OC [Example 185]
≥ 1000	COc1ccc(C(=O)Nc2ccc(C(C)(C)CNC(=O)c3cn4cccnc4n3)cc2)cc1OC [Example 186]
≥ 1000	COc1ccc(C(=O)Nc2ccc(C(C)(C)CNC(=O)c3cn(CCCN(C)C)c4ccc(F)cc34)cc2)cc1OC [Example 192, 1-(3-Dimethylamino-propyl)-5-fluoro-1H-indole-3-carboxylic acid {2-[4-(3,4-dimethoxy-benzoylamino)-phenyl]-2-methyl-propyl}-amide]
150 to 400	COc1ccc(C(=O)Nc2ccc(C(C)(C)CCNC(=O)c3cnc4ccccn34)cc2)cc1OC [Example 194, Imidazo[1,2-a]pyridine-3-carboxylic acid {3-[4-(3,4-dimethoxy-benzoylamino)-phenyl]-3-methyl-butyl}-amide]
150 to 400	COc1ccc(C(=O)Nc2ccc(C(C)(C)CCNC(=O)c3nc4cccnc4[nH]3)cc2)cc1OC [Example 196, 3H-Imidazo[4,5-b]pyridine-2-carboxylic acid {3-[4-(3,4-dimethoxy-benzoylamino)-phenyl]-3-methyl-butyl}-amide]
